According to publication PMC9500072, “Topical application of an irreversible small molecule inhibitor of lysyl oxidases ameliorates skin scarring and fibrosis” (Nature Communications, 2022):
Several values for one entry are separate records, joined by “and”; a condition that tells them apart may be missing. Identical values can stand only once.

Key:
[1] = test system: primary human fibroblasts; experiment: Collagen crosslinking in vitro, scar-in-a-jar, LC-MS/MS; assay type: cell-based; set-up: PYD: unit not given beside the values; HLNL / DHLNL / DPD: unit not given here; conditions: 11 days, biological replicates
Experimental: To determine the effects of PXS-4787 on collagen cross-link formation, primary human fibroblasts from six different participants (six biological replicates) were cultured for 11 days using ‘scar-in-a-jar’ conditions in the presence of 0, 1, and 10 µM of inhibitor. Liquid chromatography with tandem mass spectrometry (LC-MS/MS) was used to measure hydroxyproline and cross-link concentrations in these samples. Hydroxyproline concentration provides a close estimate of collagen concentration as it is present in high concentrations in collagens and is critical to fibril formation.
Primary scar fibroblasts were seeded in a complete media at density 75 × 10^4 cells per well in a T-25 tissue culture flask at 37 °C and 5% CO2. After 16 h the complete media was replaced by the stimulated media ([…] Ficoll 70 and (25 mg/ mL) Ficoll 400, 5 ng/mL TGF-β1, 0.5% FBS, […] L-ascorbic acid-2-phosphate) in DMEM-Glutamax™ supplemented with 0.5% FBS and 1% Penicillin/ Streptomycin and 1 and 10 µM concentrations of PXS-4787 for 11 days to allow time for sufficient crosslinking of extracellular collagen. After 11 days, the media was aspirated and cells were trypsinized for 30 min and reduced with 12 mg/mL Sodium Borohydride in 20 mM Sodium Hydroxide solution followed and incubated for 30 min at room temperature. The pH of the solution was made acidic using 50 µL of neat acetic acid. The solution was centrifuged at 20,000g for 15 min at 4 °C followed by three washes with MilliQ water and samples processed for crosslinking analysis.
Cell pellets or isolated tissue samples were completely hydrolyzed in 1.5 mL 6 M hydrochloric acid for 24 h at 105 °C. After complete hydrolysis, samples were dried using a vacuum dryer and reconstituted using 200 µL MilliQ water. The sample clean-up was performed using solid-phase extraction method which uses C18 and SCX solid-phase extraction cartridges for sample purification. The samples were run on UPLC-MS-MS (Mass Spectrometer: Thermo Scientific TSQ Endura Triple quadrupole, UPLC: Thermo Scientific Dionex UltiMate 3000) using Agilent RRHD SB-C18,2.1x50mm,1.8um analytical column and solvent A: 10 mM ammonium formate, 0.1% formic acid, 0.1% HFBA in H2O and solvent B: 10 mM ammonium formate, 0.1% formic acid, 0.1% HFBA in MeOH and analyzed as previously described. Limits of detection are listed in Supplementary Table S4.

Potassium Channel [KATP] = Potassium Channel [KATP] (Cricetus cricetus, UniProt Q09427); experiment: Eurofins panel 265600; assay type: binding, ham
Text: PXS-4787 competes with a model substrate (putrescine) for the LOX binding site (Fig. 2d). The allylamine of PXS-4787 interacts with the co-factor of the enzyme and elicits mechanism-based inhibition (Fig. 2e). Through careful optimization, and in contrast to BAPN, PXS-4787 selectivity targets lysyl oxidases and is neither an inhibitor of, nor a substrate for, related oxidases (Fig. 2f, g and Supplementary Table S1). Furthermore, PXS-4787 was clean when profiled in a broad panel of macromolecular targets using enzyme and radioligand binding assays (LeadProfilingScreen, Eurofins CEREP Panlabs, 68 assays, test concentration 10 µM; Supplementary Data S1).

[2] = test system: lysyl oxidase activity in the skin; experiment: Rat pharmacokinetic-pharmacodynamic model, skin lysyl oxidase activity; assay type: in vivo; conditions: for skin LOX activity S/N: individual animals; for inhibition of the specific lysyl oxidase signal: after 24 h
Experimental: PXS-6302 was formulated as an oil in water cream of different concentrations (0, 0.3, 1, 10%) and applied to a shaved area on the back of a rat (500 mg cream applied to 16 cm^2). After 24 h animals were sacrificed, the concentration of PXS-6302 in the skin was measured and the lysyl oxidase activity determined.
Fig. 5 Pharmacokinetic-pharmacodynamic measurement of target engagement in rat skin in vivo. […] Activity was measured 24 h after last topical application. Noise in these assays was determined by measuring background fluorescent changes in the presence of a high (>300 μM) concentration of BAPN to block all lysyl oxidase activity in the presence of other amine oxidase inhibitors (n = 3 per group). The signal (activity in the absence of BAPN) over noise (signal of the same extract in the presence of BAPN). Statistical analysis was performed with one-way ANOVA with Tukey’s method for multiple comparisons. *p < 0.05, **p < 0.01, ***p < 0.001 and ****p < 0.0001. Source data are provided as a Source Data file. […]
PXS-6302 was formulated as an oil in water cream of different concentrations (0, 0.3, 1, 10%) and applied to a shaved area on the back of an adult rat (500 mg cream applied to 16 cm^2 skin surface area). After 24 h animals were euthanased. For the detection of lysyl oxidase activity in the skin, epidermal and dermal layers of the skin were dissected, pre-cooled with liquid nitrogen and pulverized. Samples were washed by homogenization with ice-cold wash buffer (0.15 M NaCl, 50 mM sodium borate, pH 8.0 with 0.25 mM PMSF and 1 µL/mL bovine aprotinin as protease inhibitors) at 100 µL/mg, centrifuged at 10,000 × g for 10 min at 4 °C and supernatant discarded. After the final washing step, the pellet was resuspended in extraction buffer (6 M urea, 50 mM sodium borate, pH 8.2 with 0.25 mM PMSF and 1 µL/mL aprotinin as protease inhibitors) with ratio of buffer volume to tissue weight at 4:1. After a 3 h incubation at 4 °C, the mixture was diluted 1:2 with assay buffer containing 50 mM sodium borate (pH 8.2), centrifuged at 20,000 × g for 20 min at 4 °C. The collected supernatant was spiked with pargyline hydrochloride and mofegiline hydrochloride at final concentrations of 0.5 mM and 1 µM, respectively, to inhibit amine oxidases. Lysyl oxidase activity was measured as previously described. The concentration of PXS-6302 in the skin was also measured in the same samples using LCMSMS as described for Franz cell diffusion assay.

Potassium Channel [KATP], sequence (Q09427 whole entry): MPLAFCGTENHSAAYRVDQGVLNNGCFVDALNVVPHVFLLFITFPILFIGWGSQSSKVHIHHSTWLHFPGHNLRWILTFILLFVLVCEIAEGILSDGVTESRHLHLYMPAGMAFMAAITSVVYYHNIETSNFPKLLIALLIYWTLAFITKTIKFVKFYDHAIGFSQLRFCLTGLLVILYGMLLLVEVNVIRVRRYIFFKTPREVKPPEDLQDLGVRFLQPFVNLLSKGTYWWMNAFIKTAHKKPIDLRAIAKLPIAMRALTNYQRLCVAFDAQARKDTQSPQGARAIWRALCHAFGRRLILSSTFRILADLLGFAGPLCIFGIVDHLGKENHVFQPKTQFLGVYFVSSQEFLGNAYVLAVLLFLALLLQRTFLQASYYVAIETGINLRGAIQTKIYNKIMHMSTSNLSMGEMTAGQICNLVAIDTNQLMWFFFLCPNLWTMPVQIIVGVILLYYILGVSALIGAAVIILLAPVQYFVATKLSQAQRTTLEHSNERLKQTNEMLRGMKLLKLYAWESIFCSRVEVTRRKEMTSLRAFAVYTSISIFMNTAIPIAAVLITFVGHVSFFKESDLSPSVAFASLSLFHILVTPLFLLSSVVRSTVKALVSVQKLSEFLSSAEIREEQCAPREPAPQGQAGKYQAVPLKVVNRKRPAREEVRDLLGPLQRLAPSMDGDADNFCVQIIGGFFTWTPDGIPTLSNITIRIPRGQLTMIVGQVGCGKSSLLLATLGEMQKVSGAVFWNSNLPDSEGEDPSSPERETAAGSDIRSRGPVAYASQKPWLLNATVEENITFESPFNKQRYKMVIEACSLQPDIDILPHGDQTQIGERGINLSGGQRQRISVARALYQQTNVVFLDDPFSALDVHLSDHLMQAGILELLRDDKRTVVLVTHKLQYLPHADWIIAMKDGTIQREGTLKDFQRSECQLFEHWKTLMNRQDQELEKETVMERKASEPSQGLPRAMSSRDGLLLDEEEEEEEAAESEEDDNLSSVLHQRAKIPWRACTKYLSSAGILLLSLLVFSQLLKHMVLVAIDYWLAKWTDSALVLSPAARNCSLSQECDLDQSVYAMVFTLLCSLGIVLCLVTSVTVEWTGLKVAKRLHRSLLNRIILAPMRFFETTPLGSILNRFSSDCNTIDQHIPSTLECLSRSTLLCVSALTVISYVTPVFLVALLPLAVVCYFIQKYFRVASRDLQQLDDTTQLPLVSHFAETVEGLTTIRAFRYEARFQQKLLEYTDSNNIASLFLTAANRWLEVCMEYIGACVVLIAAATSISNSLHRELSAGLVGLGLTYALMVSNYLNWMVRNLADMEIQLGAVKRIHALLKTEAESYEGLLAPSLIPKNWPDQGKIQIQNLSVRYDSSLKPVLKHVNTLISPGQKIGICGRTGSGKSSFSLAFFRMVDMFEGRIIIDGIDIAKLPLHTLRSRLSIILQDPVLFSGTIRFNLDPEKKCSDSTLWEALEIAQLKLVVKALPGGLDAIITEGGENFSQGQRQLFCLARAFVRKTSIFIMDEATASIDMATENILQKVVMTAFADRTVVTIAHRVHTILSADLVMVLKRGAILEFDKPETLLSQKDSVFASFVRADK

## NC/C=C(\F)CS(=O)(=O)c1ccccc1 [PXS-4787]
[1]; 1 µM
  DHLNL: 143.775 and 329.16 and 113.02 and 83.13 and 359.48 and 365.16 and 104.82
  DPD: 2.93 and 49.66 and 7.64 and 1.83 and 44.6 and 15.94 and 5.96
  HLNL: 2792.14 and 4779.62 and 1377.5 and 1440.95 and 5514.92 and 6254.02 and 873.64
  HYP (hydroxyproline): did not reduce and 100208 and 1106205 and 113032 and 54746.7 and 1239040 and 1208884 and 155115
  PYD: 26.445 and 138.7 and 33.16 and 18.555 and 194.48 and 107.58 and 32.22
[1]; 10 µM
  DHLNL: 74.25 and 254.16 and 91.76 and 55.65 and 288.12 and 246.36 and 90.12
  DPD: 0 and 24.22 and 4.54 and 21.2 and 6.56 and 3.9
  HLNL: trend reduction and 1564.75 and 3443.58 and 1107.32 and 1868.37 and 4501.9 and 4758.54 and 846.68
  HYP (hydroxyproline): significantly (p = 0.0385) diminished and 52523.3 and 888147 and 121381 and 44633 and 1404421 and 949167 and 129547
  PYD: 5.86 and 65.12 and 17 and 7.95 and 92.68 and 46.62 and 20.6
Potassium Channel [KATP]
  inhibition at 10 µM: 0%

## NC/C=C(\F)C(F)(F)S(=O)(=O)c1ccccc1 [PXS-6302]
[2]; 0.5, 1, 3% cream once daily 5 days
  lysyl oxidase activity after repeat dosing: strongly reduced
[2]; 1% cream, 48 h after the last dose
  lysyl oxidase activity, % of pre-drug activity: 26%
[2]; repeat application 0.5% 400mg
  skin LOX activity S/N: 1.603 and 1.3949 and 1.286 and 1.15
[2]; repeat application 1% 400mg
  skin LOX activity S/N: 1.251 and 1.262 (2×) and 1.26
[2]; repeat application 3% 400mg
  skin LOX activity S/N: 1.108 and 1.192 and 1.079 and 1.121
[2]; single application 0.3% 500mg
  skin LOX activity S/N: 1.245 and 1.84 and 2.264
[2]; single application 1% 500mg
  skin LOX activity S/N: 1.893 and 1.116 and 1.337
[2]; single application 10% 500mg
  skin LOX activity S/N: 1.274 and 1.089 and 1.033
[2]; single dose 1% cream
  inhibition of the specific lysyl oxidase signal: 67%
[2]; single dose 10% cream
  inhibition of the specific lysyl oxidase signal: 98%
